PMC5433098, “Intrinsic Toxin-Derived Peptides Destabilize and Inactivate Clostridium difficile TcdB” (mBio, 2017)

How the values were obtained:
[1] = Oligomerization by BS3 cross-linking and SDS-PAGE; format: physicochemical; conditions: 1.4 mM peptide, 5 mM BS3, 25 mM HEPES pH 7.4, 150 mM NaCl, 30 min 25°C; 4 to 20% SDS-PAGE, Coomassie
Procedure: Peptides were cross-linked using bis(sulfosuccinimidyl)suberate (BS^3), which is a water-soluble homobifunctional cross-linking agent that reacts with primary amine groups. The cross-linking reaction was performed with 1.4 mM peptide and 5 mM BS^3 in a buffer consisting of 25 mM HEPES (pH 7.4) and 150 mM NaCl. The reaction proceeded for 30 min at 25°C and then was quenched with 100 mM Tris, pH 8.0.

[2] = system: bovine serum albumin (BSA); assay: Surface plasmon resonance (SPR), reference channel; format: binding
Procedure: (§1) Surface plasmon resonance (SPR) analysis was performed using a Biacore 3000 instrument (OMRF Biacore Core Facility). TcdB2, TcdB2Δ1853–2366, TcdB2_1851–2366, or BSA was captured on a CM5 sensor chip via amine coupling chemistry based on EDC/N-hydroxysuccinimide (NHS) activation of the carboxymethyl groups of the sensor chip surface. For TcdB2 conjugation, 1 μM TcdB2 or TcdB2Δ1853–2366 was injected at a flow rate of 10 μl/min. TcdB2_1851–2366 was injected at a concentration of 2.5 μM with a flow rate of 10 μl/min. After protein conjugation, ethanolamine was passed over the sensor chip to deactivate unreacted NHS esters. The running buffer used for the binding experiments consisted of 25 mM HEPES (pH 7.4), 150 mM NaCl, and 0.01% Tween 20, and the chip regeneration buffer consisted of 50 mM NaOH and 1 M NaCl.

TcdB [3] = assay: Intracellular Rac1 glucosylation in CHO-K1 cells (immunoblot); format: cell-based, Clostridium difficile; conditions: TcdB 0.037-3.7 pM, 25 h, 50 µM peptide
Procedure: CHO-K1 cells were cultured as described above and were seeded the day before the experiment in 24-well plates at a density of 5.0 × 10^4 cells/well. TcdB was then combined with peptide in complete culture medium and added to cells. Following this exposure, total proteins were extracted by removing culture medium and adding cold lysis buffer (1% SDS, 50 mM Tris-HCl [pH 7.4], 5 mM EDTA, and a protease inhibitor mixture). For each condition, equal amounts of total protein were analyzed by immunoblot probing with a mouse monoclonal antibody to total Rac1 (EMD Millipore; catalog no. 05-389) or a mouse monoclonal antibody recognizing nonglucosylated Rac1 (BD Bioscience; catalog no. 610651).

TcdB [4] = assay: TcdB associating with CHO-K1 cells (immunoblot); format: cell-based, Clostridium difficile; conditions: 37°C, 4 nM TcdB, 50 µM peptide
Procedure: CHO-K1 cells were cultured as described above and were seeded the day before the experiment in 12-well plates at a density of 1.0 × 10^5 cells/well. These cells were then exposed for 10 min or 30 min at 37°C to 4 nM of TcdB in the presence and absence of peptide. After this exposure, the cells were then washed twice with 1 ml of complete medium, and then total proteins were extracted by adding cold lysis buffer (1% SDS, 50 mM Tris-HCl [pH 7.4], 5 mM EDTA, and a protease inhibitor mixture). For each condition, equal amounts of total protein were analyzed by immunoblot probing with antibodies to the amino-terminal domain of TcdB (R&D Systems; catalog no. AF6246) or an antibody to glyceraldehyde-3-phosphate dehydrogenase (GAPDH) (Abcam; catalog no. AB8245).

TcdB2Δ1853–2366 [5] = assay: Surface plasmon resonance (SPR); format: binding, Clostridium difficile; conditions: 40 µM PepB2, 20 μl/min, 25°C
Procedure: as §1

TcdB2 [6] = assay: Surface plasmon resonance (SPR); format: binding, Clostridium difficile
Procedure: as §1

TcdB [7] = assay: Dialysis (50-kDa cutoff) followed by cytotoxicity assay in CHO-K1 cells; format: cell-based, Clostridium difficile; conditions: for TcdB-inhibitory activity retained after dialysis: 125 μM inhibitor in serum-free F-12–K, 50-kDa-cutoff membrane into PBS, about 62.5 μM tested, CHO-K1, 24 h, 0.4 pM TcdB, n = 3
Procedure: (§2) In cytotoxicity assays, CHO-K1 cells were seeded in 96-well plates at a density of 1.0 × 10^4 cells/well and allowed to attach overnight. Cells were incubated with toxin or toxin plus peptide for 24 h, and then cell viability was quantified by the cell counting kit 8 (CCK-8) assay (Sigma), a WST-8 dye-based colorimetric reaction.
Inhibitors were diluted to 125 μM in F-12–K medium lacking FBS. Then, 1 ml of the diluted inhibitor was dialyzed with a 50-kDa-cutoff membrane into 2 liters of PBS while stirring. After 3 h, the PBS was discarded and replaced with an additional 1.5 liters of PBS. After 2 more hours of stirring dialysis, the inhibitors were removed from the dialysis tube and diluted into F-12–K medium containing 20% FBS. This produced an inhibitor concentration of approximately 62.5 μM that was then tested for TcdB inhibition using a cytotoxicity assay described above. As controls, a portion of the diluted inhibitors were subjected to mock dialysis conditions and also tested in a cytotoxicity assay.

TcdB2 [8] = assay: Cytotoxicity assay in CHO-K1 cells (CCK-8); format: cell-based, Clostridium difficile; conditions: 24 h, 50 µM peptide, n = 3
Procedure: as §2

TcdB1 [9] = assay: Cytotoxicity assay in CHO-K1 cells (CCK-8); format: cell-based, Clostridium difficile; conditions: 24 h, 50 µM peptide, n = 3
Procedure: as §2

TcdB1 [10] = assay: Transepithelial electrical resistance (TER) in T84 cells; conditions: polarized T84 cells, 40 pM TcdB1, 50 µM peptide, n = 4
[11] = system: Bacillus anthracis lethal toxin (LT)
TcdB [12] = assay: In vitro Rac1 glucosylation assay; format: biochemical, Clostridium difficile; conditions: TcdB 1.2-24 nM, 400 nM GST-Rac1, 40 μM UDP-glucose, 37°C 1 h, 50 µM peptide, n = 3
Procedure: (§3) To determine how PepB2 influences the glucosylation activity of TcdB, 400 nM purified GST-Rac1 and 40 μM UDP-glucose were combined with a range of concentrations of TcdB (1.2 nM to 24 nM) or GTD (0.5 nM to 25 nM). These reactions were performed in 20 μl of buffer consisting of 50 mM HEPES (pH 7.5), 100 mM KCl, 2 mM MgCl2, 1 mM MnCl2, and 100 μg/ml BSA. The reactions were carried out at 37°C for 1 h and were stopped by heating the samples at 95°C for 7 min in sample buffer (62.5 mM Tris-HCl [pH 6.8], 2% SDS, 10% glycerol, 5% β-mercaptoethanol, and 0.001% bromphenol blue). An immunoblotting assay was then performed by probing with a mouse monoclonal antibody to total Rac1 (EMD Millipore; catalog no. 05-389) or a mouse monoclonal antibody recognizing nonglucosylated Rac1 (BD Bioscience; catalog no. 610651).

[13] = system: purified recombinant GTD (TcdB aa 1 to 543); assay: In vitro Rac1 glucosylation assay; format: biochemical, Clostridium difficile; conditions: GTD 0.5-25 nM, 50 µM peptide, n = 2
Procedure: as §3

TcdB [14] = assay: In vitro autoprocessing assay with IP6; format: biochemical, Clostridium difficile; conditions: 37 pM TcdB, 500 µM IP6, 1 h 37°C, 50 µM peptide, n = 4
Procedure: TcdB autoprocessing was activated by incubating 37 pM TcdB with 500 µM inositol hexakisphosphate (IP6) for 1 h at 37°C in a buffer consisting of 50 mM HEPES (pH 7.5), 150 mM NaCl, and 20 mM dithiothreitol (DTT). After the reaction was stopped by heating the samples at 95°C for 7 min in SDS-PAGE sample buffer, cleavage of TcdB was evaluated by an immunoblot assay probing with antibodies to the amino-terminal domain of TcdB (R&D Systems; catalog no. AF6246).

TcdB2Δ1853–2366 [15] = assay: Cytotoxicity assay in CHO-K1 cells; format: cell-based, Clostridium difficile; conditions: 24 h, n = 3
Procedure: as §2

TcdA = assay: Cytotoxicity assay in CHO-K1 cells; format: cell-based, Clostridium difficile; conditions: 24 h, 50 µM peptide, n = 3
Procedure: as §2

## CC[C@H](C)[C@H](NC(=O)[C@H](CCCCN)NC(=O)[C@H](CC(=O)O)NC(=O)[C@H](CO)NC(=O)[C@@H](NC(=O)[C@@H](NC(=O)[C@H](CC(N)=O)NC(=O)CNC(=O)[C@H](CCCCN)NC(=O)[C@H](Cc1ccccc1)NC(=O)[C@@H](NC(=O)[C@@H](N)CC(N)=O)C(C)C)[C@@H](C)O)[C@@H](C)CC)C(=O)N[C@@H](CO)C(=O)N[C@@H](Cc1ccccc1)C(=O)N[C@@H](CC(N)=O)C(=O)N[C@@H](Cc1ccccc1)C(=O)N[C@@H](CO)C(=O)N[C@@H](CC(=O)O)C(=O)N[C@@H](CCCCN)C(=O)O [PepB2]
[1]
  oligomerization after BS3 cross-linking: unable to migrate by SDS-PAGE
[2]
  binding to BSA-coated reference channel: did not bind
TcdB [3]
  effect on Rac1 glucosylation by TcdB in treated cells: prevented Rac1 glucosylation by TcdB in treated cells
TcdB [4]; 10 min, n = 4
  TcdB association with cells, 10 min: significantly reduced
TcdB [4]; 30 min
  TcdB association with cells, 30 min: not reduced
  TcdB proteolytic cleavage on cells, 30 min: causes TcdB to become susceptible to proteolytic cleavage
TcdB2Δ1853–2366 [5]
  binding to TcdB2Δ1853–2366 compared with equal moles of TcdB2: much higher levels of PepB2 bound TcdB2 than TcdB2Δ1853–2366
TcdB2 [6]; SPR, Biacore 3000, CM5 chip, 5 μl/min, 25°C, BSA reference subtracted
  binding to sensor chip-immobilized TcdB: binds TcdB
TcdB2 [6]; calculated from change in response units on immobilized TcdB
  number of peptide molecules bound per single molecule of TcdB: approximately 250 molecules
TcdB [7]
  TcdB-inhibitory activity retained after dialysis: TcdB-inhibitory activity was not removed
TcdB [7]; retained by 50-kDa-cutoff dialysis membrane
  size of inhibitory oligomer: > 50 kDa
TcdB2 [8]; range of toxin concentrations
  increase of the 50% toxic concentration (TC50) of TcdB2: 200 fold
TcdB1 [9]; range of toxin concentrations
  increase of the 50% toxic concentration (TC50) of TcdB1: 500 fold
TcdB1 [10]
  effect on TcdB-mediated disruption of transepithelial resistance: prevented TcdB-mediated disruption of transepithelial resistance
[11]
  inhibition of Bacillus anthracis lethal toxin cytotoxicity: did not block cytotoxicity
TcdB [12]
  effect on in vitro glucosylation of Rac1 by TcdB: did not suppress the in vitro glucosylation of Rac1 by TcdB but instead appeared to increase enzymatic activity
[13]
  effect on glucosyltransferase activity of purified recombinant GTD: no effect on the glucosyltransferase activity
TcdB [14]
  effect on IP6-induced TcdB autoproteolysis: enhanced the efficiency of IP6-induced TcdB autoproteolysis
TcdB2Δ1853–2366 [15]
  decrease in sensitivity of TcdB2Δ1853–2366 to peptide relative to full-length TcdB2: 10 fold
TcdA
  inhibition of TcdA cytotoxicity: did not block cytotoxicity

## COC(=O)CC[C@@H](C)[C@H]1CC[C@H]2[C@@H]3[C@H](O)C[C@@H]4C[C@H](O)CC[C@]4(C)[C@H]3C[C@H](O)[C@]12C [methyl cholate, reference compound]
TcdB [7]
  TcdB-inhibitory activity retained after dialysis: toxin-inhibitory activity was lost

## PepB1: peptide based on the 1769-to-1787 region of TcdB1 (NVFKDKTLANKLSFNFSDK; UniProt P18177 1769-1787, looked up, fragment)
[1]
  oligomerization after BS3 cross-linking: migrated into the gel in a similar pattern as uncross-linked control peptides
TcdB2 [8]
  inhibition of TcdB2 cytotoxicity: did not inhibit the cytotoxicity
TcdB1 [9]
  inhibition of TcdB1 cytotoxicity: did not inhibit the cytotoxicity
